We go through 7 compounds from EPA's ToxValDB 9.5.

Molecules are shown by their SMILES. Where “and” joins values, the source holds several entries; their conditions need not be identical. Identical values can stand only once.

One series relates to Metacarcinus magister. The conditions noted are these: chronic/long-term; duration: 200 hours; mortality.
Another series deals with Rattus norvegicus. The conditions noted are these: oral.
Another series deals with Oncorhynchus mykiss. The note with it: for NOEC: chronic/long-term; for LC50: acute, duration: 96 hours.
For a further series, the system named is Evynnis japonica. The conditions noted are these: acute; duration: 12 hours; mortality.
The test system of the next series is Chalcophaps sp. The note with it: subchronic; oral; feed; clinical chemistry.
Series [1] deals with Vigna radiata var. radiata. The conditions noted are these: not reported; no effects.
Another series relates to Pleurozium sp. The conditions noted are these: acute; duration: 72 hours; growth.
A further series deals with Daphnia magna. The note with it: chronic/long-term; duration: 21 days; no effects.
Another series deals with Bibionidae. The note with it: chronic/long-term, other.
For series [2] the following is noted: subchronic; duration: 56 days; other.
Another series has as its system Triticum sp. The conditions noted are these: not reported; no effects.
Another series has as its system Sus scrofa. The note with it: Not specified, no effects.
In the next series the test system is Sinapis alba. The note with it: not reported; no effects.
The next series relates to Tagia sp. The conditions noted are these: chronic/long-term, duration: 56 days.
The next series deals with Equus caballus. The conditions noted are these: oral; for LEL: feed.
Another series deals with Oryctolagus sp. The note with it: for LEL: food consumption.
A further series relates to Meleagris sp. The conditions noted are these: oral, feed.
A further series concerns Anser anser. The conditions noted are these: not reported; oral; feed; mortality.
The subject of a further series is Coturnix coturnix. The conditions noted are these: repeat dose other; food consumption.
The next series deals with Perdix sp. The note with it: not reported; mortality.
Another series deals with Lolium perenne. The conditions noted are these: acute; growth.
For a further series, the system named is Mus musculus. The conditions noted are these: chronic; duration: 2 years; M/F; B6C3F1; body weight.
Another series relates to Bovidae. The note with it: oral, diet.
For the next series, the system named is Raphanus sp. The note with it: acute; duration: 19 days; seedling emergence.
In the next series the test system is Felidae. The conditions noted are these: acute; oral; diet; Cat; neurology.
A further series concerns Danio rerio. The note with it: acute; duration: 96 hours; mortality.
The subject of another series is Macromiidae. The conditions noted are these: acute; duration: 72 hours; growth.
The test system of another series is Pontoscolex corethrurus. The note with it: reproductive; no effects.

`[Al+3].[Al+3].[O-2].[O-2].[O-2].[O-2].[O-2].[Si+4]` [Aluminum oxide silicate  (Al2O(SiO4))]: the LC50 with Metacarcinus magister turned out to be 32000 µg/mL; in the series on Evynnis japonica, 494 µg/mL. This compound also showed a median lethal dose (LD50) in the series on Rattus norvegicus (acute, mortality) greater than 5000 mg/kg. For the same compound, the NOEC in the series on Oncorhynchus mykiss (duration: 30 days, mortality) was 100 mg/L.

As for `Clc1ccc(C(c2ccc(Cl)cc2)C(Cl)(Cl)Cl)cc1` [DDT], the no-observed-adverse-effect level (NOAEL) with Anas platyrhynchos (subchronic, mortality) amounted to 0.6 mg/kg-day. Moreover, the LEL in the series with Chalcophaps sp. was 0.6 mg/kg-day.

As to `CCCCCCCCCCOc1cc2c(=O)c(C(=O)OCC)c[nH]c2cc1OCC` [Decoquinate], the NOEC in series [1] is no more than 100 mg/kg; with Pleurozium sp., 73 µg/L; in the series on Daphnia magna it was 35.2 µg/L; with Bibionidae (duration: 28 days), 16.3 mg/kg; in [2], no less than 9.2 mg/kg-day; in the series with Triticum sp., no more than 100 mg/kg. The results for the NOEC in the series with Sinapis alba, in the series on Tagia sp. (no effects) and in the series on Tagia sp. (reproduction) were no more than 100 mg/kg, greater than 1000 mg/kg and 1000 mg/kg, respectively. Also, the NOEL was 100 mg/kg-day with Rattus norvegicus (developmental, duration: 11 days, gavage, F, Sprague-Dawley, development); 15 mg/kg-day with Canidae (subchronic, duration: 12 weeks, Beagle, behavior); 60 mg/kg-day in the series on Oryctolagus sp. (developmental, duration: 11 days, oral, capsule, F, New Zealand, development). Further, the LEL with Gallus gallus (short-term, duration: 21 days, no effects) is no more than 150 mg/L; with Gallus gallus (subchronic, duration: 35 days, oral, diet, Chicken, no effects) it was 400 mg/kg-day; with Gallus gallus (subchronic, duration: 42 days, oral, diet, no effects), 400 mg/kg-day; with Sus scrofa (short-term, duration: 10 days), 80 mg/kg-day; with Equus caballus (short-term, duration: 14 days, M/F, no effects), 6.25 mg/kg-day. Besides, the NOAEL in the series on Oryctolagus sp. (reproduction developmental, F, mortality) is 60 mg/kg-day.

As to `Br.O=C(C[C@H]1NCCC[C@@H]1O)Cn1cnc2cc(Br)c(Cl)cc2c1=O` [Halofuginone hydrobromide], the LEL was determined as 9 mg/kg with Meleagris sp. (chronic/long-term, duration: 20 weeks, body weight); 3 mg/kg in the series with Anser anser; 6 mg/kg-day with Gallus gallus (subchronic, duration: 8 weeks, oral, diet, hematological); 3 mg/kg-day in the series with Coturnix coturnix; 3 mg/kg with Perdix sp.; 3 mg/kg-day with Oryctolagus sp. (repeat dose other). The NOEL in the series with Oryctolagus sp. (reproduction developmental, body weight) worked out at 0.03 mg/kg-day.

On to `CC[C@@]1([C@@H]2O[C@@H]([C@H]3O[C@@](O)(CO)[C@H](C)C[C@@H]3C)C[C@@H]2C)CC[C@H]([C@]2(C)CC[C@]3(C[C@H](O)[C@@H](C)[C@@H]([C@@H](C)[C@@H](OC)[C@H](C)C(=O)[O-])O3)O2)O1.[Na+]` [Monensin sodium], for which the NOEL with Anas platyrhynchos (short-term, duration: 8 days, oral, feed, body weight) was found to be 62 mg/kg; in the series on Mus musculus it was 1.2 mg/kg-day; in the series with Canidae (repeat dose other, oral, Dog Other, clinical signs), 0.345 mg/kg-day; in the series on Oryctolagus sp. (reproduction developmental, duration: 23 days, oral, gavage, F, body weight) it was 0.3 mg/kg-day. The LEL with Meleagris sp. (subchronic, duration: 84 days, M/F, no effects) was 100 mg/kg; in the series with Gallus gallus (subchronic, duration: 35 days, oral, diet, M/F, no effects), 125 mg/kg-day; in the series on Bovidae (chronic, duration: 160 days, M/F, no effects) it was 110 mg/kg-day; with Bovidae (short-term, duration: 28 days, M/F, no effects), 4.5 mg/kg-day. In addition, the NOEC in the series on Lolium perenne turned out to be 2 mg/kg; with Oncorhynchus mykiss (duration: 50 days, development), 0.05 mg/L; in the series with Tagia sp. (reproduction), 50 mg/kg. In the series with Oncorhynchus mykiss (mortality), this compound returned an LC50 of 1.88 µg/mL. The same compound returned a 50% lethal dose (LD50) in the series on Equus caballus (acute, gavage, mortality) of 1.38 mg/kg. The same compound returned a no observed adverse effect level (NOAEL) in the series on Oryctolagus sp. (reproduction developmental) of 0.3 mg/kg-day.

Compound `CC[C@@H](C(=O)[C@@H](C)[C@@H](O)[C@H](C)[C@@H]1O[C@@H]([C@@H](CC)C(=O)[O-])CC[C@@H]1C)[C@H]1O[C@]2(C=C[C@@H](O)[C@]3(CC[C@@](C)([C@H]4CC[C@](O)(CC)[C@H](C)O4)O3)O2)[C@H](C)C[C@@H]1C.[Na+]` [Salinomycin sodium] showed an LOEL in the series on Rattus norvegicus (chronic, duration: 2 years, diet, M/F, Wistar, clinical chemistry) of 1.5 mg/kg-day. For the same compound, the NOAEL was 0.6 mg/kg-day in the series with Rattus norvegicus (subchronic, duration: 90 days, diet, M/F, Sprague-Dawley, organ weight); 0.5 mg/kg-day in the series with Canidae (acute, duration: 1 days, oral, gavage, Beagle, clinical signs); 0.5 mg/kg-day with Canidae (chronic, duration: 1 years, oral, diet, Dog Other, neurology); 0.5 mg/kg-day with Canidae (chronic, duration: 12 months, Dog Other); no less than 5 mg/kg-day in the series on Sus scrofa (chronic, duration: 14 weeks, oral, diet, M/F). Besides, the LC50 with Raphanus sp. is 2.6 mg/kg; with Oncorhynchus mykiss (mortality), 1.7 µg/mL and 1.14 µg/mL; in the series with Danio rerio it was 6.98 µg/mL. Besides, the LEL with Felidae is no less than 16 mg/kg-day; with Gallus gallus (subchronic, duration: 5 weeks, oral, diet, M, body weight) it was 140 mg/kg-day; in the series on Gallus gallus (subchronic, duration: 12 weeks, oral, diet, body weight), 60 mg/kg-day; in the series on Gallus gallus (subchronic, duration: 42 days, organ weight), 140 mg/kg-day; with Gallus gallus (subchronic, duration: 56 days, growth), 150 mg/kg-day; in the series on Bovidae (subchronic, duration: 11 weeks, morphology) it was 90 mg/kg-day. The LEL in the series on Equus caballus (other, clinical signs) is no less than 0.12 mg/kg; with Oryctolagus sp. (subchronic, duration: 6 weeks, oral, diet), no more than 25 mg/kg-day. In addition, in the series on Bibionidae, the NOEC was determined as 6.6 mg/kg. For the same compound, the NOEL in the series on Canidae (chronic, duration: 12 months, oral, capsule, M/F, Dog Other, neurology) was determined as 0.5 mg/kg-day; in the series with Canidae (repeat dose other, oral, capsule, Dog Other, clinical signs), 0.625 mg/kg-day; in the series on Oryctolagus sp. (reproduction developmental, duration: 24 days, oral, diet, F, reproduction), 0.5 mg/kg-day; in the series with Oryctolagus sp. (reproduction developmental, reproduction), 0.5 mg/kg-day.

Regarding `O=C([O-])CC[C@@H](C(=O)[O-])N(CC(=O)[O-])CC(=O)[O-].[Na+].[Na+].[Na+].[Na+]` [Tetrasodium glutamate diacetate], the NOEC came out at 1 mg/L in the series with Macromiidae and 248 mg/kg in the series with Pontoscolex corethrurus. The compound also returned an LEL in the series on Gallus gallus (subchronic, duration: 35 days, oral, diet, M, Chicken, body weight) of 10000 mg/kg-day. Further, the NOAEL in the series with Oryctolagus sp. (reproduction developmental, duration: 21 days, oral, gavage, F, New Zealand, clinical signs) was 20 mg/kg-day.
